According to patent US20140171629A1, “MEDICINAL AGENT FOR MEDICAL APPLICATIONS” (HITACHI ALOKA MEDICAL, LTD., priority 2011, published 2014):

Experiments:
[1] = system: rhabdomyosarcoma cell line (NUTOS); assay: Survival rate of confluent NUTOS cells 15 hours after adding anticancer agent (trypan blue count); assay type: cell-based, human; conditions: serum-free DMEM/F12, 15 hours, n=5, FIG. 1
Experimental: A rhabdomyosarcoma cell line (NUTOS) established from alveolar rhabdomyosarcoma developed in the tongue of a child was used. […] In FIG. 1, the horizontal axis represents the concentration (ng/ml) of the added anticancer agent and the longitudinal axis represents the survival rate (%) of the cells after 15 hours (n=5). 1. Cells were plated on a plate and cultured to a confluent state using a DMEM/F12 culture medium supplemented with 15% fetal bovine serum. 2. The culture medium was removed and replaced with a serum-free DMEM/F12 culture medium supplemented with a given amount of an anticancer agent, and the cells were cultured for 15 hours. 3. The culture medium was removed, and the cells were washed with Hanks' solution and detached with trypsin. The detached cells were transferred to a tube and centrifuged. 4. The supernatant was removed, and the cells were suspended in a given amount of a culture medium. 5. An aliquot of the cell suspension was taken and the same amount of trypan blue was added thereto. Then, the cells were counted using a hemocytometer.

[2] = system: rhabdomyosarcoma cell line (HUMENS); assay: Survival rate of confluent HUMENS cells 15 hours after adding anticancer agent (trypan blue count); assay type: cell-based; conditions: FIG. 2
Experimental: 1. Cells were plated on a plate and cultured to a confluent state using a DMEM/F12 culture medium supplemented with 15% fetal bovine serum.
2. The culture medium was removed and replaced with a serum-free DMEM/F12 culture medium supplemented with a given amount of an anticancer agent, and the cells were cultured for 15 hours.
3. The culture medium was removed, and the cells were washed with Hanks' solution and detached with trypsin. The detached cells were transferred to a tube and centrifuged.
4. The supernatant was removed, and the cells were suspended in a given amount of a culture medium.
5. An aliquot of the cell suspension was taken and the same amount of trypan blue was added thereto. Then, the cells were counted using a hemocytometer.
The percentage of incorporation of a dye was counted 15 hours after adding an anticancer agent (s-PTX, s-CDDP, s-CBDCA, s-ADM, or s-CPA (all of which are in Example 8), PTX, CDDP, CBDCA, ADM, or CPA (all of which are in Comparative Example 2)) to confluent cells (HUMENS) in the same manner as in Example 7 or Comparative Example 1, except that a rhabdomyosarcoma cell line (HUMENS) established from alveolar rhabdomyosarcoma obtained from the mammary gland was used as the cells in place of NUTOS.

NUTOS cells = assay: Incorporation of serotonin into NUTOS cells (culture medium level, anti-serotonin antibody immunostaining); assay type: cell-based, human; conditions: serotonin in fetal bovine serum added to culture medium
Experimental: When fetal bovine serum containing serotonin was added to a culture medium containing this NUTOS cell line, the amount of serotonin in the culture medium was decreased. […] The detailed mechanism of this incorporation has not been elucidated yet, and also the role of serotonin incorporated therein has not been elucidated yet.

Row | SMILES | anticancer effect (survival rate of the cells after 15 hours) [1] | anticancer effect (survival rate of the cells after 15 hours) [2] | incorporation into NUTOS cells (NUTOS cells)
1 | N.N.O=C([O-])C1(C(=O)[O-])CCC1.[Pt+2] [CBDCA, carboplatin] | exhibited an anticancer effect by itself | exhibited an anticancer effect by itself | –
2 | CC(=O)O[C@H]1C(=O)[C@@]2(C)[C@H]([C@H](OC(=O)c3ccccc3)[C@]3(O)C[C@H](OC(=O)[C@H](O)[C@@H](NC(=O)c4ccccc4)c4ccccc4)C(C)=C1C3(C)C)[C@]1(OC(C)=O)CO[C@@H]1C[C@@H]2O [PTX, paclitaxel] | exhibited an anticancer effect by itself | exhibited an anticancer effect by itself | –
3 | O=P1(N(CCCl)CCCl)NCCCO1 (centres unmarked) [CPA, cyclophosphamide] | only a slight anticancer effect | exhibited an anticancer effect by itself | –
4 | COc1cccc2c1C(=O)c1c(O)c3c(c(O)c1C2=O)C[C@@](O)(C(=O)CO)C[C@@H]3O[C@H]1C[C@H](N)[C@H](O)[C@H](C)O1.Cl [ADM, adriamycin] | only a slight anticancer effect | only a slight anticancer effect | –
5 | [NH2][Pt]([NH2])([Cl])[Cl] [CDDP, cisplatin] | exhibited an anticancer effect by itself | exhibited an anticancer effect by itself | –
6 | NCCc1c[nH]c2ccc(O)cc12 [serotonin] | – | – | specifically incorporated into the NUTOS cells
